Converted amounts (≈) assume the structure as drawn. Structures can show the parent of a compound that is named as a salt. Where two headings read alike, the source gives them in different places.
Tests used:
[1] = system: Staphylococcus aureus (ATCC25923); test: MIC, broth microdilution (CLSI), Staphylococcus aureus ATCC25923
[2] = system: E. coli RNase P RNA, M1 RNA; test: Inhibition of bacterial RNase P activity, IC50 determination (cleavage of pATSerUG by M1 RNA); format: biochemical; details: NI = No inhibition
[3] = system: Escherichia coli (ATCC25922); test: MIC, broth microdilution (CLSI), Escherichia coli ATCC25922
[4] = system: Staphylococcus aureus subsp. aureus (ATCC29213); test: MIC, broth microdilution (CLSI), Staphylococcus aureus subsp. aureus ATCC29213; format: cell-based; details: ATCC29213, Table 15, read-out: S. aureus ("wound") (MIC)
[5] = ATCC25923, read-out: S. aureus ("Clinical") MIC
[6] = ATCC25922, read-out: E. coli MIC, Table 15, NI = No inhibition
[7] = ATCC25922, read-out: E. coli MIC

MIC [1, 5] [µg/mL]	IC50 [2] [µM]	MIC [3, 6] [µg/mL]	Compound	MIC [4] [µg/mL]	MIC [3, 7] [µg/mL]	MIC ([1]; ATCC25923, read-out: S. aureus ("Clinical") MIC, Table 15) [µg/mL]
24 (≈ 63.2 µM)	> 100	> 100	CN(C)CCCN1c2ccccc2Sc2cc(-c3ccnc(F)c3)ccc21 [compound 122, 3-(3-(2-fluoropyridin-4-yl)-10H-phenothiazin-10-yl)-N,N-dimethylpropan-1-amine]	–	–	–
6 (≈ 15.8 µM)	> 100	24 (≈ 63.2 µM)	FC(F)(F)c1cc(NC2CCCNCC2)c2c(c1)Sc1ccccc1N2 (stereo not shown) [compound 221, N-(azepan-4-yl)-3-(trifluoromethyl)-10H-phenothiazin-1-amine]	–	–	–
25 (≈ 62.9 µM)	364	–	Nc1cc(C(F)(F)F)cc2c1Nc1ccc(-c3cc4ccccc4[nH]3)cc1S2 [compound 205, 7-(1H-indol-2-yl)-3-(trifluoromethyl)-10H-phenothiazin-1-amine]	–	–	–
25 (≈ 63.7 µM)	89	50 (≈ 127 µM)	NCCN1CCC(Nc2cc(C(F)(F)F)cc3c2Nc2ccccc2O3)CC1 [compound 206, N-(1-(2-aminoethyl)piperidin-4-yl)-3-(trifluoromethyl)-10H-phenoxazin-1-amine]	–	–	–
3 (≈ 8.39 µM)	–	23 (≈ 64.3 µM)	NCCN1c2ccccc2Sc2cc(-c3cc4ccccc4[nH]3)ccc21 [compound 213, 2-(3-(1H-indol-2-yl)-10H-phenothiazin-10-yl)ethanamine]	–	–	–
3 (≈ 7.91 µM)	8	12 (≈ 31.6 µM)	NC1CCCC(Nc2cc(C(F)(F)F)cc3c2Nc2ccccc2S3)C1 (stereo not shown) [compound 204, N1-(3-(trifluoromethyl)-10H-phenothiazin-1-yl)cyclohexane-1,3-diamine]	–	–	–
6 (≈ 15 µM)	> 100	> 100	CN(C)CCCN1c2ccccc2Sc2cc(-c3ccc4[nH]ccc4c3)ccc21 [compound 121, 3-(3-(1H-indol-5-yl)-10H-phenothiazin-10-yl)-N,N-dimethylpropan-1-amine]	–	–	–
3 (≈ 7.5 µM)	24	6 (≈ 15 µM)	FC(F)(F)c1cc(NC2CCNCC2)c2c(c1)Sc1cc(Cl)ccc1N2 [compound 223, 7-chloro-N-(piperidin-4-yl)-3-(trifluoromethyl)-10H-phenothiazin-1-amine]	–	–	–
8 (≈ 20.3 µM)	> 100	32 (≈ 81.3 µM)	O=C(Nc1cc(C(F)(F)F)cc2c1Nc1ccccc1S2)C1CCCNC1 (stereo not shown) [compound 91, N-(3-(trifluoromethyl)-10H-phenothiazin-1-yl)piperidine-3-carboxamide]	–	–	–
4 (≈ 11.8 µM)	> 100	8 (≈ 23.6 µM)	NCCCNc1cc(C(F)(F)F)cc2c1Nc1ccccc1S2 [compound 97, N1-(3-(trifluoromethyl)-10H-phenothiazin-1-yl)propane-1,3-diamine]	–	–	–
2 (≈ 4.66 µM)	–	–	COc1ccc2c(c1)Sc1cc(-c3cc4ccccc4[nH]3)ccc1N2CCCN(C)C [compound 254, 3-(3-(1H-indol-2-yl)-7-methoxy-10H-phenothiazin-10-yl)-N,N-dimethylpropan-1-amine]	–	–	–
2 (≈ 4.27 µM)	–	–	NC(Cc1c[nH]c2ccccc12)C(=O)Nc1cc(C(F)(F)F)cc2c1Nc1ccccc1S2 (stereo not shown) [compound 253, 2-amino-3-(1H-indol-3-yl)-N-(3-(trifluoromethyl)-10H-phenothiazin-1-yl)propanamide]	–	–	–
52 (≈ 127 µM)	–	> 100	NC1CC(C(=O)Nc2cc(C(F)(F)F)cc3c2Nc2ccccc2S3)CCN1 (stereo not shown) [compound 139, 2-amino-N-(3-(trifluoromethyl)-10H-phenothiazin-1-yl)piperidine-4-carboxamide]	–	–	–
3 (≈ 7.12 µM)	–	12 (≈ 28.5 µM)	NCCC1CCC(CNc2cc(C(F)(F)F)cc3c2Nc2ccccc2S3)CC1 (stereo not shown) [compound 179, N-((4-(2-aminoethyl)cyclohexyl)methyl)-3-(trifluoromethyl)-10H-phenothiazin-1-amine]	–	–	–
24 (≈ 63.6 µM)	–	97 (≈ 257 µM)	NC1CCCC(CNc2cc(C(F)(F)F)cc3c2Nc2ccccc2O3)C1 (stereo not shown) [compound 164, N-((3-aminocyclohexyl)methyl)-3-(trifluoromethyl)-10H-phenoxazin-1-amine]	–	–	–
15 (≈ 31.2 µM)	39	–	FC(F)(F)c1cc(NC2CCNCC2)c2c(c1)Sc1cc(-c3cc4ccccc4[nH]3)ccc1N2 [compound 243, 7-(1H-indol-2-yl)-N-(piperidin-4-yl)-3-(trifluoromethyl)-10H-phenothiazin-1-amine]	–	–	–
7 (≈ 15.5 µM)	–	14 (≈ 31 µM)	NCCNCCN1CCC(Nc2cc(C(F)(F)F)cc3c2Nc2ccccc2S3)CC1 [compound 219, N1-(2-(4-((3-(trifluoromethyl)-10H-phenothiazin-1-yl)amino)piperidin-1-yl)ethyl)ethane-1,2-diamine]	–	–	–
3 (≈ 7.25 µM)	–	–	Cc1c(-c2ccc3c(c2)Sc2ccccc2N3CCCN(C)C)[nH]c2ccccc12 [compound 198, N,N-dimethyl-3-(3-(3-methyl-1H-indol-2-yl)-10H-phenothiazin-10-yl)propan-1-amine]	–	–	–
4 (≈ 9 µM)	–	–	CN(C)CCCN1c2ccc(-c3cc4ccccc4[nH]3)cc2Sc2cc([N+](=O)[O-])ccc21 [compound 241, 3-(3-(1H-indol-2-yl)-7-nitro-10H-phenothiazin-10-yl)-N,N-dimethylpropan-1-amine]	–	–	–
–	–	–	NCC(CCl)Nc1cc(C(F)(F)F)cc2c1Nc1ccccc1S2 (stereo not shown) [compound 178, 3-chloro-N2-(3-(trifluoromethyl)-10H-phenothiazin-1-yl)propane-1,2-diamine]	–	48 (≈ 128 µM)	6 (≈ 16.1 µM)
6 (≈ 15.2 µM)	–	13 (≈ 33 µM)	NCCN1CCC(Nc2cc(C(F)(F)F)cc3c2Nc2ccccc2S3)C1 (stereo not shown) [compound 228, N-(1-(2-aminoethyl)pyrrolidin-3-yl)-3-(trifluoromethyl)-10H-phenothiazin-1-amine]	–	–	–
6 (≈ 15.2 µM)	–	–	OCC1CCC(Nc2cc(C(F)(F)F)cc3c2Nc2ccccc2S3)CC1 (stereo not shown) [compound 192, (4-((3-(trifluoromethyl)-10H-phenothiazin-1-yl)amino)cyclohexyl) methanol]	–	–	–
7 (≈ 17.2 µM)	–	> 100	NC1CCCCC1C(=O)Nc1cc(C(F)(F)F)cc2c1Nc1ccccc1S2 (stereo not shown) [compound 113, 2-amino-N-(3-(trifluoromethyl)-10H-phenothiazin-1-yl)cyclohexane-carboxamide]	–	–	–

Compound	MIC [1, 5] [µg/mL]	IC50 [2] [µM]	MIC [3, 6] [µg/mL]	MIC [4] [µg/mL]	MIC [3, 7] [µg/mL]	MIC ([1]; ATCC25923, read-out: S. aureus ("Clinical") MIC, Table 15) [µg/mL]
NCCN1CCC(C(=O)Nc2cc(C(F)(F)F)cc3c2Nc2ccccc2S3)CC1 [compound 199]	28 (≈ 64.1 µM)	65	28 (≈ 64.1 µM)	–	–	–
CN(C)CCCN1c2ccccc2Sc2cc(-c3cc4cc(C#N)ccc4[nH]3)ccc21.O=C(O)C(F)(F)F [compound 151, 2-(10-(3-(dimethylamino)propyl)-10H-phenothiazin-3-yl)-1H-indole-5-carbonitrile 2,2,2-trifluoroacetate salt]	3	–	> 100	–	–	–
N#Cc1ccc2c(c1)Sc1cc(N3CCN(CCN)CC3)ccc1N2CCCN [compound 292, 7-(4-(2-aminoethyl)piperazin-1-yl)-10-(3-aminopropyl)-10H-phenothiazine-3-carbonitrile trifluoro acetic acid]	–	140	–	128 (≈ 313 µM)	> 128	–
Cl.NCCN1CCC(Nc2cc(C(F)(F)F)cc3c2Nc2ccc(N4CC5(CCC5)C4)cc2S3)CC1 [compound 325, N-(1-(2-aminoethyl)piperidin-4-yl)-7-(2-azaspiro [3.3]heptan-2-yl)-3-(trifluoromethyl)-10H-phenothiazin-1-amine hydrochloride]	–	6.4	8	2	–	–
CC1CC(C)N1c1ccc2c(c1)Sc1cc(C(F)(F)F)cc(NC3CCN(CCN)CC3)c1N2.Cl (stereo not shown) [compound 337, N-(1-(2-aminoethyl)piperidin-4-yl)-7-(2,4-dimethyl-azetidin-1-yl)-3-(trifluoromethyl)-10H-phenothiazin-1-amine hydrochloride]	–	26	4	2	–	–
NC1CCCC(CC(=O)Nc2cc(C(F)(F)F)cc3c2Nc2ccccc2S3)C1.O=C(O)C(F)(F)F (stereo not shown) [compound 165, 2-(3-aminocyclohexyl)-N-(3-(trifluoromethyl)-10H-phenothiazin-1-yl)acetamide 2,2,2-trifluoroacetate]	17	–	34	–	–	–
NCCCN1c2ccc(N3CCN(CCN)CC3)cc2Sc2cc(C(F)(F)F)ccc21 [compound 266, 3-(3-(4-(2-aminoethyl)piperazin-1-yl)-7-(trifluoromethyl)-10H-phenothiazin-10-yl)propan-1-amine hydrochloride]	–	31	–	16	64	–
NCCN1CCOC[C@H]1C(=O)Nc1cc(C(F)(F)F)cc2c1Nc1ccccc1S2.O=C(O)C(F)(F)F [compound 157, (S)-4-(2-aminoethyl)-N-(3-(trifluoro-methyl)-10H-phenothiazin-1-yl)morpholine-3-carboxamide 2,2,2-trifluoroacetate]	71	–	> 100	–	–	–
Cl.Cl.NCCN1CCC(Nc2cc(C(F)(F)F)cc3c2Nc2ccc(C(=O)N4CCCC4)cc2S3)CC1 [compound 293, (9-((1-(2-aminoethyl)piperidin-4-yl)amino)-7-(trifluoromethyl)-10H-phenothiazin-3-yl)(pyrrolidin-1-yl)methanone hydrochloride]	–	62	16	8	–	–
CN(C)C1CCN(c2ccc3c(c2)Sc2cc(C(F)(F)F)cc(NC4CCN(CCN)CC4)c2N3)C1.Cl.Cl (stereo not shown) [compound 299, N-(1-(2-aminoethyl)piperidin-4-yl)-7-(3-(dimethylamino)pyrrolidin-1-yl)-3-(trifluoromethyl)-10H-phenothiazin-1-amine hydrochloride]	–	6.8	32	8	–	–
CCOC(=O)c1ccc2c(c1)Sc1cc(-c3cc4ccccc4[nH]3)ccc1N2CCCN [compound 258, ethyl 10-(3-aminopropyl)-7-(1H-indol-2-yl)-10H-phenothiazine-3-carboxylate]	–	24	128 (≈ 289 µM)	2 (≈ 4.51 µM)	–	–

Reference: patent US11130741B2 (Bioimics AB, priority 2016, dated 2021)
